Values of other authors as cited in publication PMC4512625, “Critical role of the SPAK protein kinase CCT domain in controlling blood pressure” (Human Molecular Genetics, 2015).

Assays:
[1] = system: NKCC1 in the hypothalamic paraventricular nucleus; conditions: intracranial administration, spontaneously hypertensive rats
Description: The altered shape of the arterial pressure waveform in our […] mice (Fig. 5B) is consistent with increased vascular compliance and reduced wave reflection in the periphery as compared with the wild-type animals. This may be explained in part by a diminished cardiac output arising from possible reductions in cardiac contractility owing to loss of NKCC1 activity in the heart ([49]) (Fig. 2B) and the lower heart rates of the […] mice (Fig. 5A), because augmentation is negatively correlated with heart rate in humans ([50]). It has also been previously shown that […] ...

[2] = system: human OSR1 CCT domain, Leu473 to Ala; conditions: mutant versus wild type
Description: Consistent with this, mutation of Leu473 to Ala reduced binding of OSR1 to RFXI WNK4 peptide over 100-fold ([40]).

Row | Compound | heart rate [1] | sympathetic vasomotor tone [1] | reduction of binding of OSR1 to RFXI WNK4 peptide by mutation of Leu473 to Ala [2]
1 | CCCCNc1cc(C(=O)O)cc(S(N)(=O)=O)c1Oc1ccccc1 [bumetanide] | lower their heart rates | reduce sympathetic vasomotor tone | 
2 | GRFQVT [RFXI WNK4 peptide, RFXI motif-containing peptide derived from WNK4, complexed to the human OSR1 CCT domain] |  |  | over 100 fold
